The values below come from patent US12012399B2, “Microbiocidal quinoline dihydro-(thiazine)oxazine derivatives” (priority 2018, dated 2024).

Some results are limits rather than exact numbers.

Series [1] relates to Mycosphaerella graminicola (Septoria tritici). The experiment in a line: Mycosphaerella graminicola (Septoria tritici) / liquid culture (Septoria blotch). As to conditions: Zymoseptoria tritici, compared to untreated control, growth inhibition determined photometrically 4-5 days after application. The series is classed as cell-based.
A further series deals with Sclerotinia sclerotiorum. The experiment in a line: microbe, parasite or virus in culture. It is filed as cell-based. Particulars: read-out: control of Sclerotinia sclerotiorum.
Series [2] concerns Botryotinia fuckeliana (Botrytis cinerea). The experiment in a line: Botryotinia fuckeliana (Botrytis cinerea) / liquid culture (gray mould). The series is classed as cell-based. As to conditions: 72 h, compared to untreated control, growth inhibition determined photometrically 3-4 days after application.
Series [3] relates to Magnaporthe grisea (Pyricularia oryzae). Put plainly: microbe, parasite or virus in culture. It is filed as cell-based. Particulars: read-out: control of Magnaporthe grisea.
A further series concerns Fusarium culmorum. Put plainly: microbe, parasite or virus in culture. As to conditions: read-out: control of Fusarium culmorum. The series is classed as cell-based.
For series [4], the system named is Glomerella lagenarium (Colletotrichum lagenarium). Put plainly: Glomerella lagenarium (Colletotrichum lagenarium) / liquid culture (anthracnose). The series is classed as cell-based. As to conditions: Colletotrichum orbiculare, compared to untreated control, growth inhibition measured photometrically 3-4 days after application.
For series [5], the system named is Monographella nivalis (Microdochium nivale). The experiment in a line: Monographella nivalis (Microdochium nivale) / liquid culture (foot rot cereals). As to conditions: compared to untreated control, growth inhibition determined photometrically 4-5 days after application. The series is classed as cell-based.
The subject of series [6] is Mycosphaerella graminicola (Septoria tritici). Put plainly: Mycosphaerella graminicola (Septoria tritici) on wheat / preventative. The series is classed as in vivo. As to conditions: Zymoseptoria tritici, wheat plants sprayed, inoculated one day after application, assessed 16-19 days after application vs untreated control.

Take `CC1(Cc2ccccc2)CC(C)(C)SC(c2cnc3c(F)cccc3c2)=N1` (centres unmarked) [E-7, 4-benzyl-2-(8-fluoro-3-quinolyl)-4,6,6-trimethyl-5H-1,3-thiazine]: the inhibition of growth at 20 ppm in series [1] was no less than 70%; with Sclerotinia sclerotiorum it was no less than 80%; in series [2] it was no less than 80%; in [3], no less than 80%; with Fusarium culmorum it was no less than 80%; in series [4] it was no less than 80%. The inhibition of growth at 20 ppm in series [5] was no less than 80%.
With `CCC1(C)CC(C)(Cc2ccccc2)N=C(c2cnc3c(F)cccc3c2)O1` (centres unmarked) [E-9, 4-benzyl-6-ethyl-2-(8-fluoro-3-quinolyl)-4,6-dimethyl-5H-1,3-oxazine], the inhibition of growth at 20 ppm is no less than 70% in [1]; no less than 80% in the series with Sclerotinia sclerotiorum; no less than 80% in series [2]; no less than 80% in [3]; no less than 80% with Fusarium culmorum; no less than 80% in [4]. For the same compound, in series [5], the inhibition of growth at 20 ppm is no less than 80%.
One may read the melting point as the temperature, or range, at which the solid turns liquid. `C[C@@]1(Cc2ccccc2)C[C@@](C)(CCl)OC(c2cnc3c(F)cccc3c2)=N1` [E-10, (4R,6S)-4-benzyl-6-(chloromethyl)-2-(8-fluoro-3-quinolyl)-4,6-dimethyl-5H-1,3-oxazine] displayed a melting point of 125 to 130 °C. This compound displayed an inhibition of growth at 20 ppm in [1] of no less than 70%. The inhibition of growth at 20 ppm in the series on Sclerotinia sclerotiorum is no less than 80%. Besides, the inhibition of growth at 20 ppm in [2] is no less than 80%. Moreover, the inhibition of growth at 20 ppm in series [3] was no less than 80%. In the series on Fusarium culmorum, the inhibition of growth at 20 ppm is no less than 80%. Also, the inhibition of growth at 20 ppm in series [4] was no less than 80%. The same compound had an inhibition of growth at 20 ppm in series [5] of no less than 80%.
Consider `CC1(C)CC(Cc2ccccc2)N=C(c2cnc3c(F)cccc3c2)O1` (centres unmarked) [E-13, 4-benzyl-2-(8-fluoro-3-quinolyl)-6,6-dimethyl-4,5-dihydro-1,3-oxazine], for which the melting point is 90 to 92 °C. Also, in series [1], the inhibition of growth at 20 ppm was no less than 70%. In addition, the inhibition of growth at 20 ppm in the series on Sclerotinia sclerotiorum was no less than 80%. The inhibition of growth at 20 ppm in series [2] was no less than 80%. Moreover, the inhibition of growth at 20 ppm in [3] is no less than 80%. Moreover, in the series with Fusarium culmorum, the inhibition of growth at 20 ppm is no less than 80%. Moreover, in series [4], the inhibition of growth at 20 ppm was no less than 80%. The compound also returned an inhibition of growth at 20 ppm in series [5] of no less than 80%.
On to `Cc1nc2c(F)cccc2cc1C1=NC(C)(Cc2ccccc2)CC(C)(C)O1` (centres unmarked) [E-16, 4-benzyl-2-(8-fluoro-2-methyl-3-quinolyl)-4,6,6-trimethyl-5H-1,3-oxazine], for which the inhibition of growth at 20 ppm is no less than 70% in series [1]; no less than 80% in the series on Sclerotinia sclerotiorum; no less than 80% in [2]; no less than 80% in [3]; no less than 80% with Fusarium culmorum; no less than 80% in series [4]. This compound showed an inhibition of growth at 20 ppm in series [5] of no less than 80%.
For `CC1(C)CC(Cc2ccc(F)cc2)N=C(c2cnc3c(F)c(F)ccc3c2)O1` (centres unmarked) [E-18, 2-(7,8-difluoro-3-quinolyl)-4-[(4-fluorophenyl)methyl]-6,6-dimethyl-4,5-dihydro-1,3-oxazine], the melting point was in the range of 118 to 121 °C. In addition, the inhibition of growth at 20 ppm in series [1] is no less than 70%. Also, the inhibition of growth at 20 ppm in the series on Sclerotinia sclerotiorum was no less than 80%. This compound also displayed an inhibition of growth at 20 ppm in series [2] of no less than 80%. For the same compound, the inhibition of growth at 20 ppm in series [3] is no less than 80%. Besides, the inhibition of growth at 20 ppm in [5] was no less than 80%.
One may read the pest or weed control as how far the test organism was held down. Turning to `CC1(C)CC(Cc2cccc(F)c2)N=C(c2cnc3c(F)c(F)ccc3c2)O1` (centres unmarked) [E-19, 2-(7,8-difluoro-3-quinolyl)-4-[(3-fluorophenyl)methyl]-6,6-dimethyl-4,5-dihydro-1,3-oxazine], the melting point fell in the range of 95 to 98 °C. In addition, the inhibition of growth at 20 ppm in series [1] is no less than 70%. Moreover, the inhibition of growth at 20 ppm with Sclerotinia sclerotiorum is no less than 80%. In addition, in [2], the inhibition of growth at 20 ppm was no less than 80%. Further, the inhibition of growth at 20 ppm in [3] is no less than 80%. In the series on Fusarium culmorum, the inhibition of growth at 20 ppm was no less than 80%. For the same compound, in series [6], the pest or weed control at 60 ppm is no less than 80%. The compound also came in with an inhibition of growth at 20 ppm in series [5] of no less than 80%.
Turning to `CC1(C)CC(Cc2ccccc2F)N=C(c2cnc3c(F)c(F)ccc3c2)O1` (centres unmarked) [E-20, 2-(7,8-difluoro-3-quinolyl)-4-[(2-fluorophenyl)methyl]-6,6-dimethyl-4,5-dihydro-1,3-oxazine], the inhibition of growth at 20 ppm (in [2]; in [3]; with Fusarium culmorum; in [5]) was no less than 80% in each case. For the same compound, in series [6], the pest or weed control at 60 ppm is no less than 80%.
For `Fc1ccc2cc(C3=NC(Cc4ccccc4)CC4(CCCC4)O3)cnc2c1F` (centres unmarked) [E-21, 9-benzyl-7-(7,8-difluoro-3-quinolyl)-6-oxa-8-azaspiro[4.5]dec-7-ene], the inhibition of growth at 20 ppm in series [1] was no less than 70%; in series [2], no less than 80%; in series [3], no less than 80%; in [5], no less than 80%. In series [6], this compound had a pest or weed control at 60 ppm of no less than 80%.
As for `Cc1nc2c(F)c(F)ccc2cc1C1=NC(Cc2ccccc2)CC(C)(C)O1` (centres unmarked) [E-22, 4-benzyl-2-(7,8-difluoro-2-methyl-3-quinolyl)-6,6-dimethyl-4,5-dihydro-1,3-oxazine], the inhibition of growth at 20 ppm in series [1] is no less than 70%; in the series with Sclerotinia sclerotiorum, no less than 80%; in series [2], no less than 80%; in the series on Fusarium culmorum, no less than 80%; in series [5] it was no less than 80%. In series [6], the pest or weed control at 60 ppm was no less than 80%.
Compound `Fc1ccc2cc(C3=NC(Cc4ccccc4)CC4(CCC4)O3)cnc2c1F` (centres unmarked) [E-23, 8-benzyl-6-(7,8-difluoro-3-quinolyl)-5-oxa-7-azaspiro[3.5]non-6-ene] came in with a melting point of 159 to 162 °C. In [2], the inhibition of growth at 20 ppm is no less than 80%. This compound also showed a pest or weed control at 60 ppm in [6] of no less than 80%. In addition, the inhibition of growth at 20 ppm in series [5] was no less than 80%.
Take `Cc1nc2c(F)c(F)ccc2cc1C1=NC(Cc2ccc(F)cc2)CC(C)(C)O1` (centres unmarked) [E-24, 2-(7,8-difluoro-2-methyl-3-quinolyl)-4-[(4-fluorophenyl)methyl]-6,6-dimethyl-4,5-dihydro-1,3-oxazine]: the melting point lay within 128 to 132 °C. The compound also came in with an inhibition of growth at 20 ppm in series [1] of no less than 70%. The inhibition of growth at 20 ppm in series [2] was no less than 80%. This compound also gave a pest or weed control at 60 ppm in series [6] of no less than 80%. In [5], this compound gave an inhibition of growth at 20 ppm of no less than 80%.
As for `CC1(C)CC(Cc2ccccc2)N=C(c2cnc3c(F)c(F)ccc3c2)O1` (centres unmarked) [F-5], the inhibition of growth at 20 ppm in series [1] is no less than 70%; in the series with Sclerotinia sclerotiorum, no less than 80%; in series [2], no less than 80%; in series [3], no less than 80%; in the series with Fusarium culmorum, no less than 80%; in [5] it was no less than 80%. In series [6], this compound registered a pest or weed control at 60 ppm of no less than 80%.
As to `CC1(C)CC(Cc2ccc(F)cc2)N=C(c2cnc3c(F)c(F)ccc3c2)O1` (centres unmarked) [F-7], the melting point lay in the range of 117 to 119 °C. For the same compound, in the series with Fusarium culmorum, the inhibition of growth at 20 ppm was no less than 80%. In [6], the pest or weed control at 60 ppm was no less than 80%.
